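Results reflect a 48-hour exposure of cells in 96-well plates to compound at five concentrations. The concentration for full growth arrest is given as TGI.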

Test systems include U251 CNS; HCT-15 colon; SK-MEL-2 melanoma; A549 NSCLC; NCI-H522 lung; COLO 205 colon; RPMI-8226 leukemia; SR leukemia; SK-MEL-5 melanoma; SN12C renal; SF-268 CNS; LOX IMVI melanoma; KM12 colon; HS 578T breast; HT29 colon; CCRF-CEM leukemia; SNB-19 CNS; SF-295 CNS; NCI-H226 lung; PC-3 prostate.
Holding throughout (assay): inhibition of tumour cell growth, NCI panel, 48 h

Turning to `Cc1c(C)c(S(=O)(=O)N(CCCN)OCCCN)c(C)c2c1OC(C)(C)CC2`, the TGI in the assay on U251 CNS came out at 24.1 µM; in the assay on HCT-15 colon, 29.3 µM; with SK-MEL-2 melanoma it was 32.1 µM; in the assay with A549 NSCLC it was 29.6 µM; in the assay on NCI-H522 lung, 28.4 µM; in the assay on COLO 205 colon, 32.1 µM. The TGI turned out to be 35.7 µM with RPMI-8226 leukemia; 33.4 µM in the assay on SR leukemia; 29 µM in the assay with SK-MEL-5 melanoma; 28.4 µM with SN12C renal; 26.9 µM with SF-268 CNS; 26.1 µM in the assay on LOX IMVI melanoma. For the same molecule, the TGI with KM12 colon was 25.6 µM; with HS 578T breast, 29.6 µM; in the assay on HT29 colon, 28.4 µM; with CCRF-CEM leukemia, 27.6 µM; in the assay with SNB-19 CNS, 24.9 µM; in the assay on SF-295 CNS, 30.4 µM. Also, the TGI with NCI-H226 lung amounted to 28 µM; in the assay with PC-3 prostate, 24.5 µM.
Take `CCSC1=N/C(=C\c2ccco2)C(Nc2ccc(C)cc2)=N1`: the TGI in the assay on U251 CNS, in the assay on HCT-15 colon, with SK-MEL-2 melanoma, with A549 NSCLC, with NCI-H522 lung and in the assay on COLO 205 colon was greater than 100 µM in each case. For the same molecule, the TGI in the assay on RPMI-8226 leukemia, in the assay with SR leukemia, with SK-MEL-5 melanoma, in the assay with SN12C renal, with SF-268 CNS and with LOX IMVI melanoma was greater than 100 µM each time. The TGI in the assay on KM12 colon, with HS 578T breast, in the assay on HT29 colon, with CCRF-CEM leukemia, with SNB-19 CNS and with SF-295 CNS was greater than 100 µM in each case. Also, the TGI in the assay on NCI-H226 lung and in the assay with PC-3 prostate was greater than 100 µM throughout.
Turning to `CCOC(=O)C1=NN(c2ccc(C)cc2)C2(c3ccccc3)C=C(c3ccccc3)N(C)CCN12` (stereo not given), the TGI in the assay on U251 CNS, in the assay on HCT-15 colon, in the assay with SK-MEL-2 melanoma, with A549 NSCLC, with NCI-H522 lung and with COLO 205 colon was greater than 100 µM in each case. In addition, the TGI in the assay on RPMI-8226 leukemia, in the assay with SR leukemia, in the assay with SK-MEL-5 melanoma, in the assay with SN12C renal, with SF-268 CNS and with LOX IMVI melanoma was greater than 100 µM each time. For the same molecule, the TGI in the assay on KM12 colon, in the assay with HS 578T breast, in the assay with HT29 colon, with CCRF-CEM leukemia, in the assay with SNB-19 CNS and in the assay with SF-295 CNS was greater than 100 µM in each case. Also, the TGI in the assay on NCI-H226 lung and in the assay with PC-3 prostate was greater than 100 µM throughout.
For the molecule `COc1ccc2c(c1)c1ccc3c(c1n2C)C(=O)C=CC3=O`, the TGI with U251 CNS stood at 36 µM; in the assay on HCT-15 colon, 10.9 µM; in the assay with SK-MEL-2 melanoma, 34.7 µM; with A549 NSCLC, 68.7 µM; with NCI-H522 lung, 7.35 µM; with COLO 205 colon, 19.8 µM. Further, the TGI is 7.35 µM in the assay with RPMI-8226 leukemia; 5.59 µM in the assay on SR leukemia; 43.6 µM with SK-MEL-5 melanoma; 15.6 µM with SN12C renal; 31.8 µM with SF-268 CNS; 14.9 µM in the assay with LOX IMVI melanoma. Moreover, the TGI in the assay on KM12 colon amounted to 35.8 µM; in the assay with HS 578T breast, 28.1 µM; with HT29 colon, 34.9 µM; in the assay with CCRF-CEM leukemia it was 2.47 µM; in the assay with SNB-19 CNS it was 53 µM; in the assay on SF-295 CNS, 56.9 µM. Moreover, the TGI in the assay on NCI-H226 lung is 32.8 µM; in the assay with PC-3 prostate it was 26.2 µM.
Regarding `Cc1nc(-c2cccnc2)sc1C(=O)CC(=O)C(=O)Nc1cccc(NC(=O)C(=O)CC(=O)c2sc(-c3cccnc3)nc2C)n1`, the TGI in the assay with U251 CNS, with HCT-15 colon, with SK-MEL-2 melanoma, in the assay with A549 NSCLC, in the assay with NCI-H522 lung and in the assay with COLO 205 colon was greater than 100 µM throughout. The TGI with RPMI-8226 leukemia, in the assay with SR leukemia, in the assay with SK-MEL-5 melanoma, in the assay on SN12C renal, in the assay with SF-268 CNS and in the assay with LOX IMVI melanoma was greater than 100 µM throughout. The TGI with KM12 colon, with HS 578T breast, with HT29 colon, in the assay on CCRF-CEM leukemia, in the assay with SNB-19 CNS and in the assay with SF-295 CNS was greater than 100 µM each time. The TGI with NCI-H226 lung and in the assay on PC-3 prostate was greater than 100 µM in each case.
For the molecule `CN1/C(=C\N=O)C(C)(C)N(O)C1(C)C`, the TGI with U251 CNS, in the assay with HCT-15 colon, in the assay on SK-MEL-2 melanoma, in the assay with A549 NSCLC, with NCI-H522 lung and with COLO 205 colon was greater than 100 µM in each case. Besides, the TGI in the assay with RPMI-8226 leukemia, in the assay on SR leukemia, in the assay with SK-MEL-5 melanoma, with SN12C renal, in the assay on SF-268 CNS and with LOX IMVI melanoma was greater than 100 µM in each case. Moreover, the TGI with KM12 colon, in the assay with HS 578T breast, in the assay on HT29 colon, in the assay with CCRF-CEM leukemia, with SNB-19 CNS and in the assay on SF-295 CNS was greater than 100 µM in each case. The TGI in the assay with NCI-H226 lung and in the assay with PC-3 prostate was greater than 100 µM throughout.
With `Cc1ccc(F)c2[nH]c(-c3ccccc3)cc(=O)c12`, the TGI in the assay with U251 CNS was greater than 100 µM; with HCT-15 colon, greater than 100 µM; with SK-MEL-2 melanoma, greater than 100 µM; in the assay with A549 NSCLC, greater than 53.5 µM; in the assay on NCI-H522 lung, 38.1 µM; in the assay on COLO 205 colon, 24.9 µM. For the same molecule, the TGI in the assay with RPMI-8226 leukemia is greater than 100 µM; with SR leukemia it was greater than 100 µM; with SK-MEL-5 melanoma, 14.9 µM; with SN12C renal, greater than 100 µM; with SF-268 CNS, greater than 67 µM; in the assay with LOX IMVI melanoma, greater than 100 µM. Also, the TGI was greater than 100 µM with KM12 colon; greater than 100 µM in the assay on HS 578T breast; greater than 100 µM in the assay with HT29 colon; greater than 100 µM with CCRF-CEM leukemia; greater than 100 µM with SNB-19 CNS; 43.5 µM with SF-295 CNS. In addition, the TGI in the assay with NCI-H226 lung and in the assay on PC-3 prostate was greater than 100 µM throughout.
With `C/C(=N\N)C(CN1CCOCC1)C(c1ccccc1)c1c(O)c2ccccc2oc1=O` (stereo not given), the TGI in the assay on U251 CNS is greater than 100 µM; in the assay with HCT-15 colon, greater than 100 µM; in the assay with SK-MEL-2 melanoma, greater than 100 µM; with A549 NSCLC, greater than 100 µM; in the assay on NCI-H522 lung, greater than 100 µM; in the assay with COLO 205 colon it was greater than 63.5 µM. The TGI in the assay on RPMI-8226 leukemia was greater than 100 µM; with SR leukemia, greater than 100 µM; in the assay with SK-MEL-5 melanoma it was greater than 100 µM; in the assay with SN12C renal, greater than 100 µM; in the assay on SF-268 CNS, greater than 100 µM; with LOX IMVI melanoma, greater than 31.6 µM. Besides, the TGI in the assay on KM12 colon, in the assay on HS 578T breast, in the assay with HT29 colon, in the assay on CCRF-CEM leukemia, in the assay on SNB-19 CNS and with SF-295 CNS was greater than 100 µM throughout. The TGI with NCI-H226 lung and in the assay with PC-3 prostate was greater than 100 µM in each case.
